Source: US20070021434A1, “NON-NUCLEOSIDE ANTI-HEPACIVIRUS AGENTS AND USES THEREOF” (Migenix Inc., priority 2005, published 2007)

Target: HCV RdRp (NS5B) (UniProt P26663)
Type: biochemical, hepatitis C virus

HCV RdRp (NS5B), sequence (P26663 whole entry, looked up): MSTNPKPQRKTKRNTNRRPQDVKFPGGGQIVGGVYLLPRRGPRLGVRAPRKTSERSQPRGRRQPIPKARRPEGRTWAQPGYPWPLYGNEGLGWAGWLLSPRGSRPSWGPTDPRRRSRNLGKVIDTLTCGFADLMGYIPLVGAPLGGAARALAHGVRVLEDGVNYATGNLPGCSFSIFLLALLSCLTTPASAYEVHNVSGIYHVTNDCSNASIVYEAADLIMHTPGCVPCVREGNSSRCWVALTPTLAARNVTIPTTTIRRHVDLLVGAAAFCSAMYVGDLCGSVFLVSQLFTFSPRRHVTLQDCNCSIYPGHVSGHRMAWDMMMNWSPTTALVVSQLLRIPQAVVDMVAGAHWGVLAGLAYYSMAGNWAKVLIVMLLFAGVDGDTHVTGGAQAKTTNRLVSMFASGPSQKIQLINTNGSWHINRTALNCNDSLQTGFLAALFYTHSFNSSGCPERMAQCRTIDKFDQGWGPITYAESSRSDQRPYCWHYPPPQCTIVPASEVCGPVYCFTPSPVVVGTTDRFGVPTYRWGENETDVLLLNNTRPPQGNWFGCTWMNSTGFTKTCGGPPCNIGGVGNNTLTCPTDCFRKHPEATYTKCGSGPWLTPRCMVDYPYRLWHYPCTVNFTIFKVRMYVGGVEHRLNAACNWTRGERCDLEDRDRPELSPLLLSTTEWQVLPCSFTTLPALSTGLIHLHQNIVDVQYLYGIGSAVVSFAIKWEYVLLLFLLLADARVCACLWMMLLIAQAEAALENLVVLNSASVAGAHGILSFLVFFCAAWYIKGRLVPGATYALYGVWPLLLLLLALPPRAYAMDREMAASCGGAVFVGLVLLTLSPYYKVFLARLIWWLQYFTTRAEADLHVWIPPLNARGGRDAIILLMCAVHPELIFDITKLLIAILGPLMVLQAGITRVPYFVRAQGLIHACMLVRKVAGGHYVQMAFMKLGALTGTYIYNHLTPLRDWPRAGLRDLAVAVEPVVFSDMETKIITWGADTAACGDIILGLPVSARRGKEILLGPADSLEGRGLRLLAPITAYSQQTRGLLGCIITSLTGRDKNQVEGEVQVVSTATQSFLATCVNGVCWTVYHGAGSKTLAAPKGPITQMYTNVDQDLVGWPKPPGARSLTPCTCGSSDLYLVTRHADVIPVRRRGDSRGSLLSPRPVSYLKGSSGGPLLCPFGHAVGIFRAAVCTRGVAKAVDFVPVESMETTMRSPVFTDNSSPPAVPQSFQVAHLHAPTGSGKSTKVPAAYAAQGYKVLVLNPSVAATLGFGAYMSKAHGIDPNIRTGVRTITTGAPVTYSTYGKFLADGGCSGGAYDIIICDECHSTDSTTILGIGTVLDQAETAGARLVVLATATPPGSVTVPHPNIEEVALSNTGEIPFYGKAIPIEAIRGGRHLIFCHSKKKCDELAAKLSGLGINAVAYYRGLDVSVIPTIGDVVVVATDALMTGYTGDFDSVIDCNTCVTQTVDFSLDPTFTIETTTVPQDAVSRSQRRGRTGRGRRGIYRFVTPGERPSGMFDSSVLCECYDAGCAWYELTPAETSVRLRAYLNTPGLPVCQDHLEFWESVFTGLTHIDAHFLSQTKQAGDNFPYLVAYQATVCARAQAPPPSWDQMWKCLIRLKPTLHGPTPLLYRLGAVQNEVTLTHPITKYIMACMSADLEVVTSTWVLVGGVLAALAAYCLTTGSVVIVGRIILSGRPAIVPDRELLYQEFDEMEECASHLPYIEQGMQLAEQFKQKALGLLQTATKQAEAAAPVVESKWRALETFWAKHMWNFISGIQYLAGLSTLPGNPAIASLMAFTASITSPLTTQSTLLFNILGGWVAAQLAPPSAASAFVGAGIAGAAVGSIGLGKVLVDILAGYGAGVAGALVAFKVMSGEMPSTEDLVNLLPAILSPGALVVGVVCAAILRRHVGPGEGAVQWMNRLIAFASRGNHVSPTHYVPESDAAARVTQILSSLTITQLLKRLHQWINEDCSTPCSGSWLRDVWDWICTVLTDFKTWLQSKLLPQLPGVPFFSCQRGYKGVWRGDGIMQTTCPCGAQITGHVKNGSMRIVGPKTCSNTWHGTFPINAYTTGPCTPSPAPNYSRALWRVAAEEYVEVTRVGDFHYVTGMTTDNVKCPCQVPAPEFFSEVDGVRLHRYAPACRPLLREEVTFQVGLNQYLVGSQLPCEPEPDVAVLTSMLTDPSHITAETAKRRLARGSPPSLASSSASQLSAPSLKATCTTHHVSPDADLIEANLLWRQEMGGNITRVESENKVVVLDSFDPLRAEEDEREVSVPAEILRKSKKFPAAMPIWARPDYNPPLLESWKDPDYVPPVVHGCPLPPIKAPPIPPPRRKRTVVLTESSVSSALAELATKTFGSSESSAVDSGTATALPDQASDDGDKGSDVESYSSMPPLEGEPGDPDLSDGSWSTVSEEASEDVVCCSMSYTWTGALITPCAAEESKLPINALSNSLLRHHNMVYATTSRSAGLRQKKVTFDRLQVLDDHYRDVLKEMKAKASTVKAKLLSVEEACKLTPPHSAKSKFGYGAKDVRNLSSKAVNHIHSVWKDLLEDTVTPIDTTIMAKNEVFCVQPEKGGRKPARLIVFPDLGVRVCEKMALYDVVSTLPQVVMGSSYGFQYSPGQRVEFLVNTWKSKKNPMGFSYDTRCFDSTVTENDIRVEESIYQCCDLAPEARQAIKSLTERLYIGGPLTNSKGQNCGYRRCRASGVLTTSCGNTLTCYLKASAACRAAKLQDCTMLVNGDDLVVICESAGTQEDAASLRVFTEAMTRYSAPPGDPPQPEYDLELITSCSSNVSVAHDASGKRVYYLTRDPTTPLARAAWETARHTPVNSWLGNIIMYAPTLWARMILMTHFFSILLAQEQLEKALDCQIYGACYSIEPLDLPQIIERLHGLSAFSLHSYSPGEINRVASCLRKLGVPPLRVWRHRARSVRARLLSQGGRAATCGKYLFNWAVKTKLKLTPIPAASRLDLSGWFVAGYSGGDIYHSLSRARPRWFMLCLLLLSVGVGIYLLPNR

Cc1ccc(NC(=O)[C@H](CCCCN)NC(=O)CNCc2ccc(F)cc2)cc1 [Compound 346, (S)-6-AMINO-2-[2-(4-FLUORO-BENZYLAMINO)-ACETYLAMINO]-HEXANOIC ACID P-TOLYLAMIDE]
IC50: > 50 µM

Cc1ccc(NC(=O)[C@H](CCCCN)NC(=O)CNCc2ccccc2Cl)cc1 [Compound 347, (S)-6-AMINO-2-[2-(2-CHLORO-BENZYLAMINO)-ACETYLAMINO]-HEXANOIC ACID P-TOLYLAMIDE]
IC50: > 50 µM

Cc1ccc(NC(=O)[C@H](CCCCN)NC(=O)CNCc2cccc(Cl)c2)cc1 [Compound 348, (S)-6-AMINO-2-[2-(3-CHLORO-BENZYLAMINO)-ACETYLAMINO]-HEXANOIC ACID P-TOLYLAMIDE]
IC50: > 50 µM

Cc1ccc(NC(=O)[C@H](CCCCN)NC(=O)CNCc2ccc(Cl)cc2)cc1 [Compound 349, (S)-6-AMINO-2-[2-(4-CHLORO-BENZYLAMINO)-ACETYLAMINO]-HEXANOIC ACID P-TOLYLAMIDE]
IC50: > 50 µM

Cc1ccc(NC(=O)C(CCCCN)NC(=O)CNCc2ccccc2C(F)(F)F)cc1 [Compound 350, (S)-6-AMINO-2-[2-(2-TRIFLUOROMETHYL-BENZYLAMINO)-ACETYLAMINO]-HEXANOIC ACID P-TOLYLAMIDE]
IC50: > 50 µM

Cc1ccc(NC(=O)C(CCCCN)NC(=O)CNCc2cccc(C(F)(F)F)c2)cc1 [Compound 351, (S)-6-AMINO-2-[2-(3-TRIFLUOROMETHYL-BENZYLAMINO)-ACETYLAMINO]-HEXANOIC ACID P-TOLYLAMIDE]
IC50: > 50 µM

Cc1ccc(NC(=O)C(CCCCN)NC(=O)CNCc2ccc(C(F)(F)F)cc2)cc1 [Compound 352, (S)-6-AMINO-2-[2-(4-TRIFLUOROMETHYL-BENZYLAMINO)-ACETYLAMINO]-HEXANOIC ACID P-TOLYLAMIDE]
IC50: > 50 µM

Cc1ccc(NC(=O)C(CCCCN)NC(=O)CN(C)Cc2ccccc2)cc1 [Compound 353, (S)-6-AMINO-2-[2-(BENZYL-METHYL-AMINO)-ACETYLAMINO]-HEXANOIC ACID P-TOLYLAMIDE]
IC50: > 50 µM

Cc1ccc(NC(=O)C(CCCCN)NC(=O)CN(c2ccccc2)C2CCCCC2)cc1 [Compound 354, (S)-6-AMINO-2-[2-(CYCLOHEXYL-PHENYL-AMINO)-ACETYLAMINO]-HEXANOIC ACID P-TOLYLAMIDE]
IC50: > 50 µM

Cc1ccc(NC(=O)[C@H](CCCCN)NC(=O)CNc2cccc(C)c2)cc1 [Compound 355, (S)-6-AMINO-2-(2-M-TOLYLAMINO-ACETYLAMINO)-HEXANOIC ACID P-TOLYLAMIDE]
IC50: > 50 µM

Cc1ccc(NCC(=O)N[C@@H](CCCCN)C(=O)Nc2ccc(C)cc2)cc1 [Compound 356, (S)-6-AMINO-2-(2-P-TOLYLAMINO-ACETYLAMINO)-HEXANOIC ACID P-TOLYLAMIDE]
IC50: > 50 µM

COc1ccccc1NCC(=O)N[C@@H](CCCCN)C(=O)Nc1ccc(C)cc1 [Compound 357, (S)-6-AMINO-2-[2-(2-METHOXY-PHENYLAMINO)-ACETYLAMINO]-HEXANOIC ACID P-TOLYLAMIDE]
IC50: > 50 µM

COc1cccc(NCC(=O)N[C@@H](CCCCN)C(=O)Nc2ccc(C)cc2)c1 [Compound 358, (S)-6-AMINO-2-[2-(3-METHOXY-PHENYLAMINO)-ACETYLAMINO]-HEXANOIC ACID P-TOLYLAMIDE]
IC50: 10 to 50 µM

Cc1ccc(NC(=O)[C@H](CCCCN)NC(=O)CNc2ccccc2F)cc1 [Compound 359, (S)-6-AMINO-2-[2-(2-FLUORO-PHENYLAMINO)-ACETYLAMINO]-HEXANOIC ACID P-TOLYLAMIDE]
IC50: > 50 µM

Cc1ccc(NC(=O)[C@H](CCCCN)NC(=O)CNc2cccc(F)c2)cc1 [Compound 360, (S)-6-AMINO-2-[2-(3-FLUORO-PHENYLAMINO)-ACETYLAMINO]-HEXANOIC ACID P-TOLYLAMIDE]
IC50: 10 to 50 µM

Cc1ccc(NC(=O)[C@H](CCCCN)NC(=O)CNc2ccc(F)cc2)cc1 [Compound 361, (S)-6-AMINO-2-[2-(4-FLUORO-PHENYLAMINO)-ACETYLAMINO]-HEXANOIC ACID P-TOLYLAMIDE]
IC50: > 50 µM

Cc1ccc(NC(=O)[C@H](CCCCN)NC(=O)CNc2cccc(Cl)c2)cc1 [Compound 362, (S)-6-AMINO-2-[2-(3-CHLORO-PHENYLAMINO)-ACETYLAMINO]-HEXANOIC ACID P-TOLYLAMIDE]
IC50: > 50 µM

Cc1ccc(NC(=O)[C@H](CCCCN)NC(=O)CNc2ccc(Cl)cc2)cc1 [Compound 363, (S)-6-AMINO-2-[2-(4-CHLORO-PHENYLAMINO)-ACETYLAMINO]-HEXANOIC ACID P-TOLYLAMIDE]
IC50: > 50 µM

Cc1ccc(NC(=O)C(CCCCN)NC(=O)CNc2cccc(C(F)(F)F)c2)cc1 [Compound 364, (S)-6-AMINO-2-[2-(3-TRIFLUOROMETHYL-PHENYLAMINO)-ACETYLAMINO]-HEXANOIC ACID P-TOLYLAMIDE]
IC50: > 50 µM

Cc1ccc(NC(=O)C(CCCCN)NC(=O)CNc2ccc(C(F)(F)F)cc2)cc1 [Compound 365, (S)-6-AMINO-2-[2-(4-TRIFLUOROMETHYL-PHENYLAMINO)-ACETYLAMINO]-HEXANOIC ACID P-TOLYLAMIDE]
IC50: > 50 µM

Cc1ccc(NC(=O)[C@H](CCCCN)NC(=O)CNc2ccc3c(c2)CCC3)cc1 [Compound 369, (S)-6-AMINO-2-[2-(INDAN-5-YLAMINO)-ACETYLAMINO]-HEXANOIC ACID P-TOLYLAMIDE]
IC50: > 50 µM

Cc1ccc(NC(=O)C(CC(=O)O)NC(=O)OCC2c3ccccc3-c3ccccc32)cc1 [Compound 370, (S)-3-(9H-FLUOREN-9-YLMETHOXYCARBONYLAMINO)-NR-P-TOLYL-[…]]
IC50: > 50 µM

Cc1ccc(NC(=O)C(CC(=O)O)NC(=O)OCC2c3ccccc3-c3ccccc32)cc1 [Compound 371, (R)-3-(9H-FLUOREN-9-YLMETHOXYCARBONYLAMINO)-NR-P-TOLYL-[…]]
IC50: > 50 µM

Cc1ccc(NC(=O)C(CCC(=O)O)NC(=O)OCC2c3ccccc3-c3ccccc32)cc1 [Compound 372, (S)-4-(9H-FLUOREN-9-YLMETHOXYCARBONYLAMINO)-4-P-TOLYLCARBAMOYL-BUTYRIC ACID]
IC50: > 50 µM

Cc1ccc(NC(=O)C(CCC(=O)O)NC(=O)OCC2c3ccccc3-c3ccccc32)cc1 [Compound 373, (R)-4-(9H-FLUOREN-9-YLMETHOXYCARBONYLAMINO)-4-P-TOLYLCARBAMOYL-BUTYRIC ACID]
IC50: > 50 µM

Cc1ccc(NC(=O)C(CCO)NC(=O)OCC2c3ccccc3-c3ccccc32)cc1 [Compound 374, (S)-(3-HYDROXY-1-P-TOLYLCARBAMOYL-PROPYL)-CARBAMIC ACID 9H-FLUOREN-9-YLMETHYL ESTER]
IC50: > 50 µM

Cc1ccc(NC(=O)C(CO)NC(=O)OCC2c3ccccc3-c3ccccc32)cc1 [Compound 375, (R)-(2-HYDROXY-1-P-TOLYLCARBAMOYL-ETHYL)-CARBAMIC ACID 9H-FLUOREN-9-YLMETHYL ESTER]
IC50: > 50 µM

Cc1ccc(NC(=O)C(NC(=O)OCC2c3ccccc3-c3ccccc32)C(C)O)cc1 [Compound 376, (2+/−,3S)-(2-HYDROXY-1-P-TOLYLCARBAMOYL-PROPYL)-CARBAMIC ACID 9H-FLUOREN-9-YLMETHYL ESTER]
IC50: > 50 µM

Cc1ccc(NC(=O)C(NC(=O)OCC2c3ccccc3-c3ccccc32)C(C)O)cc1 [Compound 377, (2+/−,3R)-(2-HYDROXY-1-P-TOLYLCARBAMOYL-PROPYL)-CARBAMIC ACID 9H-FLUOREN-9-YLMETHYL ESTER]
IC50: > 50 µM

Cc1ccc(NC(=O)C(Cc2c[nH]c3ccccc23)NC(=O)OCC2c3ccccc3-c3ccccc32)cc1 [Compound 378, (S)-[2-(1H-INDOL-3-YL)-1-P-TOLYLCARBAMOYL-ETHYL]-CARBAMIC ACID 9H-FLUOREN-9-YLMETHYL ESTER]
IC50: > 50 µM

Cc1ccc(NC(=O)C(Cc2c[nH]c3ccccc23)NC(=O)OCC2c3ccccc3-c3ccccc32)cc1 [Compound 379, (R)-[2-(1H-INDOL-3-YL)-1-P-TOLYLCARBAMOYL-ETHYL]-CARBAMIC ACID 9H-FLUOREN-9-YLMETHYL ESTER]
IC50: > 50 µM

Cc1ccc(NC(=O)C(Cc2ccc(O)cc2)NC(=O)OCC2c3ccccc3-c3ccccc32)cc1 [Compound 380, (R)-[2-(4-HYDROXY-PHENYL)-1-P-TOLYLCARBAMOYL-ETHYL]-CARBAMIC ACID 9H-FLUOREN-9-YLMETHYL ESTER]
IC50: > 50 µM

Cc1ccc(NC(=O)C(Cc2cccs2)NC(=O)OCC2c3ccccc3-c3ccccc32)cc1 [Compound 381, (S)-(2-THIOPHEN-2-YL-1-P-TOLYLCARBAMOYL-ETHYL)-CARBAMIC ACID 9H-FLUOREN-9-YLMETHYL ESTER]
IC50: > 50 µM

Cc1ccc(NC(=O)C(CCC(N)=O)NC(=O)OCC2c3ccccc3-c3ccccc32)cc1 [Compound 382, (R)-(3-CARBAMOYL-1-P-TOLYLCARBAMOYL-PROPYL)-CARBAMIC ACID 9H-FLUOREN-9-YLMETHYL ESTER]
IC50: > 50 µM

CSCCC(NC(=O)OCC1c2ccccc2-c2ccccc21)C(=O)Nc1ccc(C)cc1 (centres unmarked) [Compound 383]
IC50: > 50 µM

Cc1ccc(NC(=O)C(Cc2cnc[nH]2)NC(=O)OCC2c3ccccc3-c3ccccc32)cc1 [Compound 384, (R)-[2-(3H-IMIDAZOL-4-YL)-1-P-TOLYLCARBAMOYL-ETHYL]-CARBAMIC ACID 9H-FLUOREN-9-YLMETHYL ESTER]
IC50: > 50 µM

Cc1ccc(NC(=O)C(Cc2cccnc2)NC(=O)OCC2c3ccccc3-c3ccccc32)cc1 [Compound 385, (S)-(2-PYRIDIN-3-YL-1-P-TOLYLCARBAMOYL-ETHYL)-CARBAMIC ACID 9H-FLUOREN-9-YLMETHYL ESTER]
IC50: > 50 µM

COc1ccc(S(=O)(=O)N[C@@H](CCCCN)C(=O)Nc2ccc(C)cc2)cc1OC [Compound 386, (S)-6-AMINO-2-(3,4-DIMETHOXY-BENZENESULFONYLAMINO)-HEXANOIC ACID P-TOLYLAMIDE]
IC50: > 50 µM

Cc1ccc(NC(=O)[C@H](CCCCN)NS(=O)(=O)c2ccccc2)cc1 [Compound 387, (S)-6-AMINO-2-BENZENESULFONYLAMINO-HEXANOIC ACID P-TOLYLAMIDE]
IC50: > 50 µM

Cc1ccc(NC(=O)C(CCCCN)NS(=O)(=O)c2cc(S(=O)(=O)c3ccccc3)cs2)cc1 [Compound 388, (S)-6-AMINO-2-(4-BENZENESULFONYL-THIOPHENE-2-SULFONYLAMINO)-HEXANOIC ACID P-TOLYLAMIDE]
IC50: > 50 µM

Cc1ccc(NC(=O)C(CCCCN)NS(=O)(=O)c2ccc(S(=O)(=O)c3ccccc3)s2)cc1 [Compound 389, (S)-6-AMINO-2-(5-BENZENESULFONYL-THIOPHENE-2-SULFONYLAMINO)-HEXANOIC ACID P-TOLYLAMIDE]
IC50: > 50 µM
